The record followed here is PMC8152690, “Biosynthetic access to the rare antiarose sugar via an unusual reductase-epimerase” (Chemical Science, 2020).

In one assay the target is T1, RubS5 (Streptomyces sp. KIB-H033, UniProt A0A1I9S3Q5).
T1 construct: expressed and purified; rubrolone gene cluster
T1 sequence (A0A1I9S3Q5 1-289): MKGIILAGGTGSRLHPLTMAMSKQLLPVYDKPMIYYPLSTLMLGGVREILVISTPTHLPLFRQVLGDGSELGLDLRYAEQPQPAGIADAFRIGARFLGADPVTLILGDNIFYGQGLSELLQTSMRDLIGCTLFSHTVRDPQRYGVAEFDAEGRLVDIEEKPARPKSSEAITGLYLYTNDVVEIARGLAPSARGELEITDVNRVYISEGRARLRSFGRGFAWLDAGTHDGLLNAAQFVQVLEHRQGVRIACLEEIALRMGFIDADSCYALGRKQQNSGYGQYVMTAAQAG
Description: HPLC and 1H-NMR of product. Particulars: sugar phosphate co-substrate (D-glucose-1-phosphate in text, D-glucose-6-phosphate in Fig. 2 legend). The assay is classed as biochemical.

In another assay the test system is T2, RblE.
T2 construct: rubterolone gene cluster
The experiment in a line: spectrophotometric assay, decrease of NADPH absorbance. The assay is classed as biochemical.

Structures are written as SMILES.

In the case of `Cc1cn([C@H]2C[C@H](O)[C@@H](COP(=O)(O)OP(=O)(O)OP(=O)(O)O)O2)c(=O)[nH]c1=O` [TTP], at RubS5, the “HPLC and 1H-NMR of product” value is “buffer with TTP and D-glucose-6-phosphate. (b) RubS5 reaction”.
On to `Cc1cn([C@H]2C[C@H](O)[C@@H](COP(=O)(O)OP(=O)(O)O[C@H]3O[C@H](C)C(=O)[C@H](O)[C@H]3O)O2)c(=O)[nH]c1=O` [compound 1, TDP-4-keto-6-deoxy-D-glucose], for which the Michaelis constant (Km) in the assay on RblE amounted to 35 µM.

Usually Km stands for the substrate concentration at which the rate is half of its maximum.
